# Calls of active or inactive are those of the source. No cut-off for these calls is given here.
# Tests used:
# [1] = Toxicity in BALB/c mouse assessed as obvious damage in tissues of organs at 10 mg/kg, ip measured for 7 days by H and E staining based analysis; type: organism-based; conditions: in vivo, 168 h, time 7 day
# [2] = Toxicity in BALB/c mouse assessed as lesions in tissues of organs at 10 mg/kg, ip measured for 7 days by H and E staining based analysis; type: organism-based; conditions: in vivo, 168 h, time 7 day
# [3] = Toxicity in KM mouse assessed as abnormality in spleen at 20 mg/kg, sc by H and E staining based analysis; type: organism-based; conditions: in vivo
# [4] = Toxicity in KM mouse assessed as adverse reactions at <=20 mg/kg, sc; type: organism-based; conditions: in vivo
# [5] = Toxicity in KM mouse assessed as abnormality in heart at 20 mg/kg, sc by H and E staining based analysis; type: organism-based; conditions: in vivo
# [6] = Toxicity in KM mouse assessed as abnormality in lung at 20 mg/kg, sc by H and E staining based analysis; type: organism-based; conditions: in vivo
# [7] = Toxicity in KM mouse assessed as erythema on dorsal skin at <=20 mg/kg, sc; type: organism-based; conditions: in vivo
# [8] = Toxicity in KM mouse assessed as abnormality in liver at 20 mg/kg, sc by H and E staining based analysis; type: organism-based; conditions: in vivo
# [9] = Toxicity in KM mouse assessed as abnormality in heart at 30 mg/kg, sc by H and E staining based analysis; type: organism-based; conditions: in vivo
# [10] = Toxicity in BALB/c mouse model of Sepsis infected with methicillin-resistant Staphylococcus aureus M11 assessed as survival rate at 10 mg/kg, ip measured after 7 days; type: organism-based; conditions: in vivo, 168 h, time 7 day
# Staphylococcus aureus [11] = experiment: Antibacterial activity against methicillin-resistant Staphylococcus aureus M11 infected in BALB/c mouse model of Sepsis assessed as reduction in bacterial load in kidney at 10 mg/kg, ip measured after 48 hrs; type: functional
# Staphylococcus aureus [12] = experiment: Antibacterial activity against methicillin-resistant Staphylococcus aureus M11 infected in BALB/c mouse model of Sepsis assessed as reduction in bacterial load in liver at 20 mg/kg, ip measured after 48 hrs; type: functional
# [13] = Toxicity in BALB/c mouse assessed as obvious damage in tissues of organs at 30 mg/kg, ip measured for 7 days by H and E staining based analysis; type: organism-based; conditions: in vivo, 168 h, time 7 day
# [14] = Binding affinity to phosphatidylglycerol assessed as association constant by ITC analysis
# Staphylococcus aureus [15] = experiment: Antibacterial activity against methicillin-resistant Staphylococcus aureus M11 infected in BALB/c mouse model of Sepsis assessed as reduction in serum IL-6 level administered intraperitoneally measured after 48 hrs; type: functional, organism-based; conditions: dose 10-20 mg/kg, route ip
# Staphylococcus aureus [16] = experiment: Antibacterial activity against methicillin-resistant Staphylococcus aureus M11 infected in BALB/c mouse model of Sepsis assessed as reduction in bacterial load in spleen at 10 mg/kg, ip measured after 48 hrs; type: functional
# Staphylococcus aureus [17] = experiment: Antibacterial activity against methicillin-resistant Staphylococcus aureus M11 infected in BALB/c mouse model of Sepsis assessed as reduction in serum TNF-alpha level administered intraperitoneally measured after 48 hrs; type: functional, organism-based; conditions: dose 10-20 mg/kg, route ip
# [18] = Binding affinity to phosphatidylglycerol assessed as change in enthalpy by ITC analysis
# Staphylococcus aureus [19] = experiment: Antibacterial activity against methicillin-resistant Staphylococcus aureus M11 infected in BALB/c mouse model of Sepsis assessed as reduction in bacterial load in liver at 10 mg/kg, ip measured after 48 hrs; type: functional
# [20] = Toxicity in BALB/c mouse assessed as change in serum biochemical parameters at 30 mg/kg, ip measured for 7 days; type: organism-based; conditions: in vivo, 168 h, time 7 day
# [21] = Toxicity in KM mouse assessed as abnormality in liver at 30 mg/kg, sc by H and E staining based analysis; type: organism-based; conditions: in vivo
# Staphylococcus aureus [22] = experiment: Antibacterial activity against methicillin-resistant Staphylococcus aureus M11 infected in BALB/c mouse model of Sepsis assessed as reduction in bacterial load in spleen at 20 mg/kg, ip measured after 48 hrs; type: functional
# [23] = Binding affinity to phosphatidylglycerol assessed as change in entropy by ITC analysis
# Staphylococcus aureus [24] = experiment: Antibacterial activity against methicillin-resistant Staphylococcus aureus M11 infected in BALB/c mouse model of Sepsis assessed as reduction in bacterial load in kidney at 20 mg/kg, ip measured after 48 hrs; type: functional
# [25] = Toxicity in KM mouse assessed as erythema on dorsal skin at 40 mg/kg, sc; type: organism-based; conditions: in vivo
# Staphylococcus aureus [26] = experiment: Antibacterial activity against methicillin-resistant Staphylococcus aureus M11 infected in BALB/c mouse model of Sepsis assessed as vacuolar degeneration in renal epithelial cells at 10 mg/kg, ip measured after 48 hrs; type: functional, organism-based
# [27] = Toxicity in KM mouse assessed as abnormality in kidney at 30 mg/kg, sc by H and E staining based analysis; type: organism-based; conditions: in vivo
# Staphylococcus aureus [28] = experiment: Antibacterial activity against methicillin-resistant Staphylococcus aureus M11 infected in BALB/c mouse model of Sepsis assessed as vacuolar degeneration in liver cells at 10 to 20 mg/kg, ip measured after 48 hrs; type: functional, organism-based; conditions: dose 10-20 mg/kg
# Staphylococcus aureus [29] = experiment: Antibacterial activity against methicillin-resistant Staphylococcus aureus M11 infected in BALB/c mouse model of Sepsis assessed as vacuolar degeneration in renal epithelial cells at 20 mg/kg, ip measured after 48 hrs; type: functional, organism-based
# [30] = Toxicity in KM mouse assessed as abnormality in spleen at 30 mg/kg, sc by H and E staining based analysis; type: organism-based; conditions: in vivo
smiles,measurement,setting,value
CCCCCNC(=O)C[n+]1ccc(SCCCCCOc2ccc3ccc(=O)oc3c2CC=C(C)C)cc1.[Br-],Activity,[1],Non-toxic
same,Activity,[2],Non-toxic
same,Activity,[3],Non-toxic
same,Activity,[4],Non-toxic
same,Activity,[5],Non-toxic
same,Activity,[6],Non-toxic
same,Activity,[7],Non-toxic
same,Activity,[8],Non-toxic
CC(C)=CCc1c(OCCCCSc2cc[n+](CC(=O)N(CC(C)C)CC(C)C)cc2)ccc2ccc(=O)oc12.[Br-],Activity,[9],Non-toxic
same,Survival,[10],44.4%
same,Activity,Staphylococcus aureus [11],1.81 log10CFU/ml
same,Activity,Staphylococcus aureus [12],3.81 log10CFU/ml
same,Activity,[13],Non-toxic
same,Ka,[14],3.53 10^4/M
same,Activity,Staphylococcus aureus [15],Dose-dependent-effect
same,Activity,Staphylococcus aureus [16],1.62 log10CFU/ml
same,Activity,Staphylococcus aureus [17],Dose-dependent-effect
same,deltaH,[18],-2720 cal/mol
same,Activity,Staphylococcus aureus [19],1.84 log10CFU/ml
same,Activity,[20],Non-toxic
same,Activity,[21],Non-toxic
same,Activity,Staphylococcus aureus [22],4.33 log10CFU/ml
same,deltaS,[23],11.7 cal/mol/deg
same,Activity,Staphylococcus aureus [24],4.24 log10CFU/ml
same,Activity,[25],Toxic
same,Activity,Staphylococcus aureus [26],inactive
same,Activity,[27],Non-toxic
same,Activity,Staphylococcus aureus [28],Active
same,Activity,Staphylococcus aureus [29],Active; Improvement Was Comparable To That In Vancomycin Group
same,Activity,[30],Non-toxic
